Results from patent publication US20220287998A1, “USE OF C3aR IN PREPARING DRUG FOR PREVENTING OR TREATING POLYCYSTIC KIDNEY DISEASE” (Shanghai Changzheng Hospital, priority 2021, published 2022).

Columns and labels:
[1] = test system: Han:sPRD rats and PKD1 knockout mice; details: cited from earlier work
[2] = test system: RAW264.7 cells; experiment: C3a stimulation of macrophages, Western blot of p-Akt, p-ERK, p-P65, p-STAT1 and TNF-α; assay type: cell-based, Murine; details: 24 hours
Protocol: In order to explore the mechanism of pro-inflammatory effects of C3a-C3aR on M1-type macrophages, RAW264.7 cells were divided into 4 groups with LPS as a stimulation factor and C3a as an intervention factor: (1) a control group (without any stimulation); (2) a C3a (100 ng/ml) stimulation group; (3) a LPS (100 ng/ml) stimulation group; (4) a C3a (100 ng/ml)+LPS (100 ng/ml) stimulation group. After 24 hours, cell proteins in each group were extracted, and Western blot was used for detecting the expression of p-Akt, p-ERK, p-P65, p-STAT1 and TNF-α. […] Akt and ERK may regulate the apoptosis and proliferation of M1-type macrophages, while NF-κB and STAT1 was an important signaling pathway for polarization and related inflammation of M1-type macrophage. Therefore, it is speculated that C3a-C3aR may promote the activation of Akt, ERK, STAT1 and NF-κB pathway in M1-type macrophages, and then promote the secretion of TNF-α inflammatory factors by M1-type macrophages.

[3] = test system: RAW264.7 cells; experiment: C3a stimulation of macrophages, RT-PCR of iNOS, TNF-α and IL-6 mRNA; assay type: cell-based, Murine; details: 24 hours
Protocol: (§1) The C3aR expression on the cell surface affected the sensitivity of downstream signals induced by C3a, so C3a-C3aR should act mainly on M1-type macrophages, which was consistent with the downstream pro-inflammatory effect. To verify the effect of C3a stimulation on the expression of M1-type macrophage inflammatory factor, RAW264.7 cells were divided into 5 groups: (1) a control group: without any stimulation; (2) a LPS group: stimulated with 100 ng/ml LPS; (3) a LPS+C3a group: stimulated with 100 ng/ml LPS+100 ng/ml C3a; (4) a IL-4 group: stimulated with 20 ng/ml IL-4; (5) a IL-4+C3a group: stimulated with 20 ng/ml IL-4+100 ng/ml C3a. After 24 hours, cell RNA was extracted, and RT-PCR was used for detecting iNOS, TNF-α and IL-6 mRNA level in each group of cells, wherein the primer sequence used by RT-PCR was as follows: iNOS primer sequence Mouse F: 5′-[…]-3′ (SEQ ID NO:9), Mouse R: 5′-[…]-3′ (SEQ ID NO:10), IL-6 primer sequence Mouse F: 5′-[…]-3′ (SEQ ID NO:11), Mouse R: 5′-[…]-3′ (SEQ ID NO:12), TNF-α primer sequence Mouse F: 5′-GGCATGGATCTCAAAGACA-3′ (SEQ ID NO:13), Mouse R: 5′-TGGGCTCATACCAGGGTT-3′ (SEQ ID NO:14).

[4] = test system: RAW264.7 cells; experiment: TNF-α level in macrophage culture supernatants by Elisa; assay type: cell-based, Murine; details: culture supernatant, after C3a stimulation
Protocol: as §1
The TNF-α level in the culture supernatants of macrophages from different treatment groups were detected by Elisa. […]

[5] = test system: Pkd1 knockout mouse; experiment: Apoptosis of cyst cells in Pkd1 knockout mouse; assay type: in vivo
[6] = test system: Pkd1 knockout mice; experiment: Effect of C3aR inhibitor SB290157 on cyst indexes and kidney function of Pkd1 knockout mice; assay type: in vivo
Source text: Experimental animals: the animals used in this experiment were PKD1^flox/flox-Tamoxifen-Cre mice, gifted by professor Wüthrich RP, University of Zurich, Switzerland, and were bred in Specific Pathogen Free (SPF) Laboratory Animal Center of Naval Medical University [License No: SYXK (Shanghai): 2017-0004].
The blood creatinine, urea nitrogen, kidney/body weight, and cyst index of each group of mice were compared.
The main reagents used were a C3aR inhibitor (Calbiochem, SB290157, Germany), Creatinine Assay Kit (Nanjing Jiancheng Bioengineering Institute), Urea Nitrogen Assay Kit (Nanjing Institute of Built Bioengineering), and dimethyl sulfoxide (DMSO) (Amresco, 1963C070, USA).
Serum creatinine (μmol/L)=[(Sample A2-K*Sample A1)−(Blank A2-K*Blank A1)]/[(Standard A2-K*Standard A1)−(Blank A2-K*Blank A1)]*Standard Concentration; Formula:
Urea nitrogen (mmol/L)=(Assay OD−Blank OD)/(Standard OD−blank OD)*Standard Concentration (10 mmol/L)*Dilution multiple;
After HE staining, scanning was performed with a whole slide image scanner, and pictures were exported and saved using CaseViewer software. The total pixel value of the whole kidney in Photoshop software was calculated as A1, a cyst area was selected and calculated the total pixel value as A2, wherein the ratio of A2 to A1 is the cyst index.

[7] = test system: Pkd1 conditional knockout mice; experiment: F4/80 immunofluorescence staining, macrophage infiltration in kidney tissue of Pkd1 conditional knockout mice; assay type: in vivo; details: 1 mg/kg i.p. once a day; treatment group versus model control group
Source text: F4/80 in the kidney tissues of the wild group, the model control group and the SB290157 treatment group were stained by immunofluorescence to compare the macrophage infiltration.

[8] = test system: ADPKD-related pathway protein; experiment: Western blot of ADPKD-related signaling pathway proteins in kidney tissue; assay type: in vivo, mice
Source text: In order to further explore the therapeutic mechanism of SB290157 on polycystic kidney mice, the expression of ADPKD-related pathway protein was detected by Western blot.

[9] = test system: mouse cyst epithelial cells; experiment: Ki67 immunohistochemical staining of kidney slices, proliferation of cyst epithelial cells; assay type: in vivo, mice; details: treatment group versus model control group
Protocol: In order to explore whether the proliferation of mouse cyst epithelial cells was restricted after treatment, immunohistochemical staining for Ki67 was performed on kidney slices of each group of mice, wherein Ki67 was a nuclear protein that could reflect the cell proliferation level.

[10] = M1-type macrophages, C3a 100 ng/ml + LPS 100 ng/ml
[11] = M1-type macrophages (100 ng/ml LPS) + 100 ng/ml C3a
[12] = treatment group compared with model control group
[13] = treatment group compared to model control group

O=C(/C=C/c1ccc(O)c(O)c1)O[C@H](Cc1ccc(O)c(O)c1)C(=O)O [rosmarinic acid]
growth of kidney cysts [1]: inhibit | infiltration of kidney interstitial macrophages [1]: significantly reduce | kidney function [1]: improve

[Cl][Co][Cl] [cobalt chloride]
growth of kidney cysts [1]: inhibit | infiltration of kidney interstitial macrophages [1]: significantly reduce | kidney function [1]: improve

C3a: produced by activation of complement C3; promotes inflammatory cell infiltration; used at 100 ng/ml to stimulate macrophages
stimulatory effect on M0-type macrophages (p-Akt, p-ERK, p-P65, p-STAT1, TNF-α) ([2]; C3a 100 ng/ml alone): not significant | expression of TNF-α protein [2, 10]: further up-regulated | expression of p-Akt protein [2, 10]: further up-regulated | expression of p-ERK protein [2, 10]: further up-regulated | expression of p-P65 protein [2, 10]: further up-regulated | expression of p-STAT1 protein [2, 10]: further up-regulated | pro-inflammatory effect on M2-type macrophages ([3]; 20 ng/ml IL-4 + 100 ng/ml C3a): no significant pro-inflammatory effect | IL-6 mRNA level [3, 11]: remarkably up-regulated | TNF-alpha mRNA level [3, 11]: remarkably up-regulated | iNOS mRNA level ([3]; M1-type macrophages (100 ng/ml LPS) + 100 ng/ml C3a, versus LPS group): up-regulated | TNF-α level secreted by M1-type macrophages [4]: further increased

N=C(N)NCCCC(NC(=O)COCC(c1ccccc1)c1ccccc1)C(=O)O (stereo not drawn) [SB290157]
apoptosis [5]: increasing | double kidney weight/body weight ratio (2KW/BW) ([6]; Pkd1 knockout mice, 1 mg/kg i.p. once a day, day 28, model control 0.112±0.006, wild 0.012±0.000): 0.043±0.007 | blood urea nitrogen ([6]; Pkd1 knockout mice, 1 mg/kg i.p. once a day, day 28, model control 80.4±6.0, wild 6.8±0.7): 26.3 ± 6.5 mmol/L | serum creatinine ([6]; Pkd1 knockout mice, 1 mg/kg i.p. once a day, day 28, model control 90.0±3.6, wild 13.0±1.2 μmol/L): 29.3±3.4 μm | cyst index ([6]; Pkd1 knockout mice, 1 mg/kg intraperitoneal once a day from postnatal day 12, sacrificed day 28, model control 49.9±1.9%): 35.3±1.9% | cyst area (HE staining) [6, 12]: reduction | kidney volume [6, 12]: reduced | positive rate of F4/80 in the kidney tissue (macrophage infiltration) [7]: significantly lower | C3aR level [8]: reduced | expression of p-Akt protein [8, 13]: down-regulated | expression of p-ERK protein [8, 13]: down-regulated | expression of p-P65 protein [8, 13]: down-regulated | number of kidney Ki67 positive staining cells [9]: significantly lower
